Results on 19 compounds are retold here after US20210369710A1, “MODULATORS OF MYC FAMILY PROTO-ONCOGENE PROTEIN” (Nalo Therapeutics, priority 2019, published 2021).

The Dmax is the greatest extent of degradation seen. A lower Dmax goes with shallow degradation.

The target in one experiment is T1, MycC Protein (Homo sapiens, UniProt P01106).
T1 construct: endogenous in cells; host or cells: HL-60 or SKNBE2
Kind of experiment: Degradation of MycC protein, Western blot band density in cells. The class given is cell-based. Conditions: HL-60 or SKNBE2 cells; 6 uL of compound (1 mM) added to 3 mL cells; 6 hours; Western blot band density (ImageJ). The method, then:
(§1) In a T150 flask was plated either 2×10^6 of HL-60 (human leukemia cell line) or SKNBE2 (neuroblastoma cell line) cells in a total of 30 mL containing Roswell Park Memorial Institute (RPMI) 1640 Medium (Thermo Fisher, Cat. #11875-085), 10% Fetal Bovine Serum (FBS, Thermo Fisher: Cat. #10437-028), 1% Penicillin/streptomycin (Thermo Fisher: Cat. #10378016), and 1% Amophotericin B (Thermo Fisher, Cat. #15290026). The cells were split every 72 hours by reseeding the HL-60 or SKNBE2 cells, and the passage number was noted. It is noteworthy that cell cultures that were above 40 passages were not used, and most experiments were done with cells of less than 30 passages.
(§2) In a 6-well cell culture plate, a total of 3 mL of either 1×10^6 cells/mL of HL-60 or SKNBE2 cells were seeded, resulting in a total of 3×10^6 cells per well. To each well containing 3 mL of either HL-60 or SKNBE2 cell line was added 6 uL of MycN modulating compound (1 mM) and the resulting plate was shaken from left to right, and not swirled. After 6 hours, the cells were placed in a 15 mL falcon tube and spun at 500 Gs at 4° C. in a swinging bucket centrifuge. The medium was then carefully removed without disturbing the pellet. The pellet was then washed with 3 mLs of chilled phosphate buffered saline (PBS) and subjected to the spin cycle. PBS was then removed and the pellet was lysed in 200 uL of radioimmunoprecipitation (RIPA) lysis buffer (Thermo Fisher: Cat. #899000) that is supplemented with protease and phosphatase inhibitors (Thermo Fisher: Cat. #A32959). The cell lysate was then subjected to spinning in a centrifuge for 10 minutes at 13000G at 4° C. The supernatant was then carefully transferred to a fresh eppendorf tube without disturbing the pellet (˜180 uL). The protein concentration of the cell lysate was then determined by using a bicinchoninic acid (BCA assay) according to manufacturer's protocol (Thermo Fisher: Cat. #23227).
(§3) Cell lysate, approximately 25 ug-30 ug, was loaded per well in a 4-20% polyacrylamide gel (Biorad. Cat. #5671094). After running the dye front off of the gel, the gel was transferred to a nitrocellulose membrane (Biorad: Cat. #1704159) using the transblot turbo system (Biorad: Cat. #1704150) according to manufacturer's protocol. After transferring for 30 minutes, the membrane was blocked with 5% BSA for 1 hour at room temperature. The BSA was then washed off and the primary antibody of choice (1:500) was added, and the membrane was incubated with the primary antibody at 4° C. for overnight. The next morning, the primary antibody was removed and the membrane was washed with 1×-TBST for 10 minutes and repeated three more times. Following the last wash, a secondary antibody (Molecular Devices. Cat. #R8209 or R8208) was added at 1:5000 dilution and incubated for 1 hour at room temperature. Following the incubation with the secondary antibody, the membrane was washed with 1×-TBST for 10 minutes and repeated three more times. Following the last wash, the membrane was washed with de-ionized water twice and dried for at least two hours. Once the membrane is completely dry, the Molecular Devices Spectra Max western system was used to observe the bands. The western image was saved and the band density was measured with ImageJ software.
A general note: A western blot detects proteins with antibodies after separation by electrophoresis.

In a further experiment the target is T2, MycN Protein (Homo sapiens, UniProt P04198).
T2 construct: endogenous in cells; host or cells: HL-60 or SKNBE2
T2 sequence (P04198 1-464): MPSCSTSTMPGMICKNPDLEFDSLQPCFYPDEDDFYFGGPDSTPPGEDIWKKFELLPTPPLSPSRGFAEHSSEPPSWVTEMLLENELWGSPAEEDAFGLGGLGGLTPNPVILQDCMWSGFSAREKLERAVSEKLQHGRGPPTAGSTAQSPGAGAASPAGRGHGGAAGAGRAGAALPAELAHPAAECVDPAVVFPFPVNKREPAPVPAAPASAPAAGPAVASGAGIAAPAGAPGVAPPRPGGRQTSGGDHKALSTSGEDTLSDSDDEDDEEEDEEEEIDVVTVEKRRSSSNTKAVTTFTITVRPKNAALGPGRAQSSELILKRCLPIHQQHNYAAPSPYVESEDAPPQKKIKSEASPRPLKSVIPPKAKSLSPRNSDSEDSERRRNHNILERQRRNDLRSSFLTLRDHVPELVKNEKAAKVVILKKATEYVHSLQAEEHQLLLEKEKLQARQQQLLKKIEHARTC
The experiment can be described thus: Degradation of MycN protein, Western blot band density in cells. The class given is cell-based. Conditions: HL-60 or SKNBE2 cells; 6 uL of compound (1 mM) added to 3 mL cells; 6 hours; Western blot band density (ImageJ). Here is the method:
as §1, §2, §3

T1 sequence (P01106 whole entry): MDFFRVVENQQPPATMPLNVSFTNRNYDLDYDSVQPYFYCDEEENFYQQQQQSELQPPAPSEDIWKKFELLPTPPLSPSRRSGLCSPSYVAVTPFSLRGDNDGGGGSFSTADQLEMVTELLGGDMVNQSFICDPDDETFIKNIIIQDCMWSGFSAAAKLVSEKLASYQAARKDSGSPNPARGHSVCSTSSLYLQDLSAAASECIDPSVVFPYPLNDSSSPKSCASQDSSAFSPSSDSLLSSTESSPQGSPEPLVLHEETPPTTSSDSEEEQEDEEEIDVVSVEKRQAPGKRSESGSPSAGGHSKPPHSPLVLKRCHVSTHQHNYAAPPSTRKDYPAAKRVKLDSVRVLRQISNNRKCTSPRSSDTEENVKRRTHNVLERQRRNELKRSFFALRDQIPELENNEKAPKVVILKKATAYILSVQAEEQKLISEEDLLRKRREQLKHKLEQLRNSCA

In the case of `N#Cc1ccc2c(c1)CC(NC(=O)N[C@H]1CC[C@H](Nc3nccc(Nc4cc(C5CCCC5)[nH]n4)n3)CC1)C2` (stereo partly drawn) [Compound 11 (Fraction 1), 1-(5-cyano-2,3-dihydro-1H-inden-2-yl)-3-((1R,4R)-4-((4-((5-cyclopentyl-1H-pyrazol-3-yl)amino)pyrimidin-2-yl)amino)cyclohexyl)urea], the “% Degradation of MycC” value on MycC Protein is “**** (****: degradation 80-100%)”. Also, the “% Degradation of MycN” value at MycN Protein is reported as “** (**: degradation 20-49%)”.

With `N#Cc1ccc2c(c1)CC(NC(=O)N[C@H]1CC[C@H](Nc3nccc(Nc4cc(C5CCCC5)[nH]n4)n3)CC1)C2` (stereo partly drawn) [Compound 11 (Fraction 2), 1-(5-cyano-2,3-dihydro-1H-inden-2-yl)-3-((1R,4R)-4-((4-((5-cyclopentyl-1H-pyrazol-3-yl)amino)pyrimidin-2-yl)amino)cyclohexyl)urea], the “% Degradation of MycC” value at MycC Protein is on record as “**** (****: degradation 80-100%)”. In addition, at MycN Protein, the “% Degradation of MycN” value is “*** (***: degradation 50-79%)”.

As to `O=C(NC1CCN(C2COC2)CC1)N[C@H]1CC[C@H](Nc2nccc(Nc3cc(C4CCCC4)[nH]n3)n2)CC1` [Compound 12, 1-((1R,4R)-4-((4-((5-cyclopentyl-1H-pyrazol-3-yl)amino)pyrimidin-2-yl)amino)cyclohexyl)-3-(1-(oxetan-3-yl)piperidin-4-yl)urea], the Dmax at 2 µM at MycC Protein and on MycN Protein was below 20% throughout.

As for `CN(c1nccc(Nc2cc(C3CCCC3)[nH]n2)n1)C1CCC(NC(=O)NC2Cc3ccc(C#N)cc3C2)CC1` [Compound 16 (Fraction 1), 1-(5-cyano-2,3-dihydro-1H-inden-2-yl)-3-((1R,4R)-4-((4-((5-cyclopentyl-1H-pyrazol-3-yl)amino)pyrimidin-2-yl)(methyl)amino)cyclohexyl)urea], the “% Degradation of MycC” value at MycC Protein is reported as “**** (****: degradation 80-100%)”. For the same compound, at MycN Protein, the “% Degradation of MycN” value was “*** (***: degradation 50-79%)”.

Turning to `CN(c1nccc(Nc2cc(C3CCCC3)[nH]n2)n1)C1CCC(NC(=O)NC2Cc3ccc(C#N)cc3C2)CC1` [Compound 16 (Fraction 2), 1-(5-cyano-2,3-dihydro-1H-inden-2-yl)-3-((1R,4R)-4-((4-((5-cyclopentyl-1H-pyrazol-3-yl)amino)pyrimidin-2-yl)(methyl)amino)cyclohexyl)urea], the “% Degradation of MycC” value at MycC Protein was “**** (****: degradation 80-100%)”. At MycN Protein, the “% Degradation of MycN” value is recorded as “*** (***: degradation 50-79%)”.

Regarding `Cc1nc(-c2ccc3c(c2)CC(NC(=O)N[C@H]2CC[C@H](Nc4nccc(Nc5cc(C6CCCC6)[nH]n5)n4)CC2)C3)no1` (stereo partly drawn) [Compound 20, 1-((1R,4R)-4-((4-((5-cyclopentyl-1H-pyrazol-3-yl)amino)pyrimidin-2-yl)amino)cyclohexyl)-3-(5-(5-methyl-1,2,4-oxadiazol-3-yl)-2,3-dihydro-1H-inden-2-yl)urea], the maximal degradation (Dmax) at 2 µM at MycC Protein and at MycN Protein was 80 to 100% in each case.

`N#Cc1ccc2c(c1)CC(NC(=O)N[C@H]1CC[C@H](Nc3nccc(Nc4cc(C5CC5)[nH]n4)n3)CC1)C2` (stereo partly drawn) [Compound 21, 1-(5-cyano-2,3-dihydro-1H-inden-2-yl)-3-((1R,4R)-4-((4-((5-cyclopropyl-1H-pyrazol-3-yl)amino)pyrimidin-2-yl)amino)cyclohexyl)urea]: the values for the greatest degradation seen (Dmax) at 2 µM on MycC Protein and at MycN Protein were below 20% and 20 to 49%, respectively.

As for `O=C(NC1CCS(=O)(=O)CC1)N[C@H]1CC[C@H](Nc2nccc(Nc3cc(C4CCCC4)[nH]n3)n2)CC1` [Compound 24], the Dmax at 2 µM at MycC Protein was 20 to 49%; at MycN Protein it was below 20%.

For `O=C(NC1CCCS(=O)(=O)C1)N[C@H]1CC[C@H](Nc2nccc(Nc3cc(C4CCCC4)[nH]n3)n2)CC1` (some centres unmarked) [Compound 25], the greatest degradation seen (Dmax) at 2 µM on MycC Protein and on MycN Protein was below 20% in each case.

For `CS(=O)(=O)[C@H]1CCCC(NC(=O)N[C@H]2CC[C@H](Nc3nccc(Nc4cc(C5CCCC5)[nH]n4)n3)CC2)C1` (some centres unmarked) [Compound 26], the results for the greatest degradation seen (Dmax) at 2 µM at MycC Protein and at MycN Protein were below 20% and 20 to 49%, respectively.

Take `Cc1cc(Nc2ccnc(N[C@H]3CC[C@H](NC(=O)N[C@H]4CC[C@H](S(C)(=O)=O)CC4)CC3)n2)n[nH]1` [Compound 32]: the Dmax at 2 µM on MycC Protein and at MycN Protein was below 20% throughout.

Regarding `O=C(NC1CS(=O)(=O)C1)N[C@H]1CC[C@H](Nc2nccc(Nc3cc(C4CCCC4)[nH]n3)n2)CC1` [Compound 34], the Dmax at 2 µM is 50 to 79% at MycC Protein and below 20% on MycN Protein.

As for `O=C(N[C@@H]1CCC[C@H](C(F)(F)F)C1)N[C@H]1CC[C@H](Nc2nccc(Nc3cc(C4CCCC4)[nH]n3)n2)CC1` [Compound 35, 1-((1R,4R)-4-((4-((5-cyclopentyl-1H-pyrazol-3-yl)amino)pyrimidin-2-yl)amino)cyclohexyl)-3-((1R,3S/1S,3R)-3-(trifluoromethyl)cyclohexyl)urea], the Dmax at 2 µM on MycC Protein lay within 20 to 49%; at MycN Protein it was 80 to 100%.

For `O=C(NC1CCC(N2CCOC2=O)CC1)N[C@H]1CC[C@H](Nc2nccc(Nc3cc(C4CCCC4)[nH]n3)n2)CC1` (stereo partly drawn) [Compound 37, 1-((1R,4R)-4-((4-((5-cyclopentyl-1H-pyrazol-3-yl)amino)pyrimidin-2-yl)amino)cyclohexyl)-3-(4-(2-oxooxazolidin-3-yl)cyclohexyl)urea], the Dmax at 2 µM on MycC Protein and on MycN Protein was below 20% each time.

Regarding `CC1(NC(=O)N[C@H]2CC[C@H](Nc3nccc(Nc4cc(C5CCCC5)[nH]n4)n3)CC2)CCOCC1` [Compound 38, 1-((1R,4R)-4-((4-((5-cyclopentyl-1H-pyrazol-3-yl)amino)pyrimidin-2-yl)amino)cyclohexyl)-3-(4-methyltetrahydro-2H-pyran-4-yl)urea], the greatest degradation seen (Dmax) at 2 µM at MycC Protein fell in the range of 50 to 79%; at MycN Protein it was 20 to 49%.

As for `O=C(Nc1cccc(C(F)(F)F)c1)N[C@H]1CC[C@H](Nc2nccc(Nc3cc(C4CCCC4)[nH]n3)n2)CC1` [Compound 39, 1-((1R,4R)-4-((4-((5-cyclopentyl-1H-pyrazol-3-yl)amino)pyrimidin-2-yl)amino)cyclohexyl)-3-(3-(trifluoromethyl)phenyl)urea], the Dmax at 2 µM lay in the range of 20 to 49% on MycC Protein and 50 to 79% at MycN Protein.

With `O=C(Nc1cccc(C(F)(F)F)c1)N[C@H]1CC[C@@H](Nc2nccc(Nc3cc(C4CCCC4)[nH]n3)n2)CC1` [Compound 40, 1-((1S,4S)-4-((4-((5-cyclopentyl-1H-pyrazol-3-yl)amino)pyrimidin-2-yl)amino)cyclohexyl)-3-(3-(trifluoromethyl)phenyl)urea], the maximal degradation (Dmax) at 2 µM on MycC Protein and at MycN Protein was 50 to 79% each time.

For `COCCNC(=O)NC1CCC(Nc2nccc(Nc3cc(C4CCCC4)[nH]n3)n2)CC1` [Compound 43, 1-((1R,4R)-4-((4-((5-cyclopentyl-1H-pyrazol-3-yl)amino)pyrimidin-2-yl)amino)cyclohexyl)-3-(2-methoxyethyl)urea], the maximal degradation (Dmax) at 2 µM at MycC Protein and on MycN Protein was 20 to 49% throughout.

Regarding `CO[C@H]1C[C@H](NC(=O)NC2CCC(Nc3nccc(Nc4cc(C5CCCC5)[nH]n4)n3)CC2)C1` (stereo partly drawn) [Compound 44, 1-((1R,4R)-4-((4-((5-cyclopentyl-1H-pyrazol-3-yl)amino)pyrimidin-2-yl)amino)cyclohexyl)-3-((1R,3R)-3-methoxycyclobutyl)urea], the figures for the maximal degradation (Dmax) at 2 µM at MycC Protein and at MycN Protein were 20 to 49% and below 20%, respectively.
